Assay results reported in PMC11990879, “Anticandidal Activity of Lipopeptides Containing an LL-37-Derived Peptide Fragment KR12” (Molecules, 2025).
Converted amounts (≈) assume the structure as drawn. Where two headings read alike, the source gives them in different places. Marks after values point to notes of the source that are not given here. Values belong to the compound of their own block, whether it stands above or below them. Where a SMILES comes first, the peptide text is derived from it. The star is where a group is joined. Myristoyl = CCCCCCCCCCCCCC(=O)*; Lauroyl = CCCCCCCCCCCC(=O)*; Octanoyl = CCCCCCCC(=O)*; X1 = CCCCCCC(CCCC)C(=O)*

Legend:
[1] = tested on: C. tropicalis PCM 2680; test: microbe, parasite or virus in culture; format: cell-based, Candida tropicalis; settings: Candida tropicalis, PCM2680; C. tropicalis; RPMI 1640, inoculum ca. 5 × 10^3 CFU/mL, range 0.5–256 mg/L, 48 h, 25 °C, read visually, three times on three days; read-out: Minimum inhibitory concentration (MIC), C. tropicalis
Method: (§1) Fungal strains were purchased from the Polish Collection of Microorganisms (Polish Academy of Science, Wroclaw, Poland). Four reference strains of Candida (C. albicans ATCC 10231, C. glabrata ATCC 15126, C. lypolytica PCM 2680, and C. tropicalis PCM 2680) were cultured on the Dextrose Sabouraud Agar (DSA, Neogen, Lansing, MI, USA). Before performing the assays, the fungi were cultured in a Sabouraud dextrose broth (DSB, Neogen, Lansing, MI, USA) for 48 h under aerobic conditions at 25 °C. Afterward, the fungal cultures were centrifuged (2500 rpm, 10 min) and resuspended in the appropriate liquid medium for appropriate inoculums for the performed assays.
(§2) The strains cultured described in Section 4.1 were suspended in the Roswell Park Memorial Institute 1640 Medium (RPMI, Sigma-Aldrich, St. Louis, MO, USA) at an initial inoculum of ca. 5 × 10^3 CFU/mL. The stock solutions (1024 mg/L) of tested compounds in RPMI were added to 96-well polystyrene plates and diluted serially to well no. 10, leaving wells 11 and 12 for fertility and sterility controls. The tested Candida strains were exposed to graded concentrations (range 0.5–256 mg/L) of the lipopeptides and conventional antifungals (benzalkonium chloride, fluconazole, and nystatin) for 48 h under aerobic conditions at 25 °C. After incubation, the results were read visually.

[2] = tested on: C. tropicalis PCM 2680; test: microbe, parasite or virus in culture; format: cell-based, Candida tropicalis; settings: Candida tropicalis, PCM2680, MIC wells and two higher concentrations seeded on DSA, 48 h, 25 °C, read visually, three times, read-out: Minimum fungicidal concentration (MFC), C. tropicalis
Method: as §1, §2
(§3) Then the results were read visually. Both MIC as well as the MFC assays were performed threetimes on three different days.

[3] = tested on: C. albicans biofilms cultured on polystyrene; format: cell-based, Candida albicans
Method: as §1
Fungal suspensions in DSB were added to the wells at initial inoculums of ca. 5 × 10^6 CFU/mL and incubated under aerobic conditions, at 25 °C for 24 h, 48 h, and 72 h, in order to grow candidal biofilms of different maturity. After the appropriate time of incubation, the wells were washed with phosphoric buffered (PBS), and fresh RPMI medium supplemented with antifungals and the lipopeptides at graded concentrations (range […]) were added. The fungal biofilms were exposed to the compounds for 24 h (aerobic conditions, 25 °C). After the exposure to antifungals, the content of the wells was aspirated and a 0.01% solution of resazurin (Sigma-Aldrich, St. Louis, MO, USA) in DSB was added. Resazurin (blue) was applied as a cell viability reagent, which upon contact with living cells is reduced to a pink resorufin. The samples with the dye were incubated for 1 h at 25 °C and the absorbance was measured at 570 and 600 nm with a microplate reader (Thermo Fisher Scientific, Waltham, MA, USA). The assays were performed four times on four different days. The results are presented as the means of the measured percentage of metabolic activity (MA) of fungi in the well when compared with positive (sample with Candida in DSB) and negative controls (pure DSB), which were taken as 100% and 0%, respectively. The MA of Candida in the samples was measured according to the following formula:MA(%) = (ΔAbs of sample − ΔAbs of negative control)/(ΔAbs of positive control − ΔAbs of negative control);(1) ΔAbs = absorbance at 570 nm − absorbance at 600 nm.(2)
The MBEC was taken as the lowest concentration of antifungal which allowed us to reduce the metabolism of fungal cells to 10% (or less) of the positive control.

[4] = tested on: C. glabrata ATCC 15126; test: microbe, parasite or virus in culture; format: cell-based, Candida glabrata; settings: Nakaseomyces glabratus, ATCC15126, MIC wells and two higher concentrations seeded on DSA, 48 h, 25 °C, read visually, three times, read-out: Minimum fungicidal concentration (MFC), C. glabrata
Method: as §1, §2, §3

[5] = tested on: Candida strains (C. albicans, C. glabrata, C. lipolytica, C. tropicalis); format: cell-based; settings: for MIC, range over the tested strains: 48 h
Method: as §1, §2, §3

[6] = tested on: C. albicans biofilms cultured on polystyrene; format: cell-based, Candida albicans; settings: C. albicans biofilms of 24, 48 and 72 h, up to 512 mg/L
[7] = tested on: C. glabrata ATCC 15126; test: microbe, parasite or virus in culture; format: cell-based, Candida glabrata; settings: Nakaseomyces glabratus, ATCC15126; first C. glabrata column; RPMI 1640, inoculum ca. 5 × 10^3 CFU/mL, range 0.5–256 mg/L, 48 h, 25 °C, read visually, three times on three days; read-out: Minimum inhibitory concentration (MIC), C. glabrata
Method: as §1, §2

[8] = tested on: C. albicans ATCC 10231; test: microbe, parasite or virus in culture; format: cell-based, Candida albicans; settings: Candida albicans, ATCC10231; C. albicans; RPMI 1640, inoculum ca. 5 × 10^3 CFU/mL, range 0.5–256 mg/L, 48 h, 25 °C, read visually, three times on three days; read-out: Minimum inhibitory concentration (MIC), C. albicans
Method: as §1, §2

[9] = tested on: C. lypolytica PCM 2680; test: microbe, parasite or virus in culture; format: cell-based, Candida lipolytica; settings: Yarrowia lipolytica, PCM2680, RPMI 1640, inoculum ca. 5 × 10^3 CFU/mL, range 0.5–256 mg/L, 48 h, 25 °C, read visually, three times on three days, read-out: Minimum inhibitory concentration (MIC), C. lipolytica
Method: as §1, §2

[10] = tested on: C. albicans ATCC 10231; test: microbe, parasite or virus in culture; format: cell-based, Candida albicans; settings: Candida albicans, ATCC10231, MIC wells and two higher concentrations seeded on DSA, 48 h, 25 °C, read visually, three times, read-out: Minimum fungicidal concentration (MFC), C. albicans
Method: as §1, §2, §3

[11] = tested on: C. lypolytica PCM 2680; test: microbe, parasite or virus in culture; format: cell-based, Candida lipolytica; settings: Yarrowia lipolytica, PCM2680, MIC wells and two higher concentrations seeded on DSA, 48 h, 25 °C, read visually, three times, read-out: Minimum fungicidal concentration (MFC), C. lipolytica
Method: as §1, §2, §3

[12] = tested on: human red blood cells; settings: cited from earlier work
Source text: Table 2 Minimum inhibitory concentrations (MIC) and minimum fungicidal concentrations (MFC) determined for peptides and reference antifungals [g/L]. The highest antimicrobial activity is marked in green, medium values in yellow, while the weakest antifungal activity is marked in red. Minimum hemolytic concentration (MHC5%—causing hemolysis of 5% of human red blood cells) determined in previous stu | column: MHC5%

[13] = tested on: Staphylococcus aureus biofilm; settings: previous study; ref [21]; cited from earlier work
Source text: Lipidation has proven to be an effective strategy for improving the microbiological properties of the KR12-NH2 peptide. […] The influence of the structure of substituted fatty acids as well as the lipidation pattern was noticed. Among derivatives containing linear fatty acid residues, an analog with octanoic acid turned out to be the most promising antibacterial agent. The C8-KR12-NH2 peptide (compound IV) inhibited the growth of both Gram-p ...

[14] = biofilms cultured on polystyrene, 24 h
[15] = biofilms cultured on polystyrene, 48 h
[16] = biofilms cultured on polystyrene, 72 h

Structure (SMILES): OC(Cn1cncn1)(Cn1cncn1)c1ccc(F)cc1F [Fluconazole, fluconazole, reference compound]
MIC [1]: 2000 µg/mL (≈ 6.53 mM)
MFC [2]: 8000 µg/mL (≈ 26.1 mM)
MBEC 24 h ([3]; C. albicans biofilm cultured on polystyrene for 24 h, exposure 24 h, 25 °C, RPMI, resazurin, metabolic activity reduced to 10% or less, four times on four days): >512 * mg/L
MBEC 48 h ([3]; C. albicans biofilm cultured on polystyrene for 48 h, exposure 24 h, 25 °C, RPMI, resazurin, metabolic activity reduced to 10% or less, four times on four days): >512 * mg/L
MBEC 72 h ([3]; C. albicans biofilm cultured on polystyrene for 72 h, exposure 24 h, 25 °C, RPMI, resazurin, metabolic activity reduced to 10% or less, four times on four days): >512 * mg/L
MFC [4]: 2000 µg/mL (≈ 6.53 mM)
Fungicidal activity (MFC relative to MIC) ([5]; MFCs equal to or twice as high as the corresponding MICs): fungicidal activity against C. albicans and C. glabrata
Antibiofilm activity against any type of biofilm [6]: showed no antibiofilm activity
MIC [7]: 500 µg/mL (≈ 1.63 mM)
MIC [8]: 4000 µg/mL (≈ 13.1 mM)
MIC [9]: 2000 µg/mL (≈ 6.53 mM)
MFC [10]: 8000 µg/mL (≈ 26.1 mM)
MFC [11]: 8000 µg/mL (≈ 26.1 mM)

Structure (SMILES): CCCCCCCC(=O)N[C@@H](CCCCN)C(=O)N[C@@H](CCCNC(=N)N)C(=O)N[C@H](C(=O)N[C@H](C(=O)N[C@@H](CCC(N)=O)C(=O)N[C@@H](CCCNC(=N)N)C(=O)N[C@H](C(=O)N[C@@H](CCCCN)C(=O)N[C@@H](CC(=O)O)C(=O)N[C@@H](Cc1ccccc1)C(=O)N[C@@H](CC(C)C)C(=O)N[C@@H](CCCNC(=N)N)C(N)=O)[C@@H](C)CC)C(C)C)[C@@H](C)CC [IV, C8-KR12-NH2] (Octanoyl-KRIVQRIKDFLR-NH2)
MHC5% (minimum hemolytic concentration causing hemolysis of 5% of human red blood cells) [12]: 64 g/L
MBEC against Staphylococcus aureus biofilm [13]: 4 to 16 mg/L

Second part, led by results:

MIC, range over the tested strains [5]: 4 to 8 µg/mL
Structure (SMILES): CCCCCCCCCCCC(=O)N[C@@H](CCCCN)C(=O)N[C@@H](CCCNC(=N)N)C(=O)N[C@H](C(=O)N[C@H](C(=O)N[C@@H](CCC(N)=O)C(=O)N[C@@H](CCCNC(=N)N)C(=O)N[C@H](C(=O)N[C@@H](CCCCN)C(=O)N[C@@H](CC(=O)O)C(=O)N[C@@H](Cc1ccccc1)C(=O)N[C@@H](CC(C)C)C(=O)N[C@@H](CCCNC(=N)N)C(N)=O)[C@@H](C)CC)C(C)C)[C@@H](C)CC [VI, C12-KR12-NH2] (Lauroyl-KRIVQRIKDFLR-NH2)
MBEC 24 h [3, 14]: 512 mg/L
MBEC 48 h [3, 15]: >512 * mg/L
MBEC 72 h [3, 16]: >512 * mg/L
MHC5% (minimum hemolytic concentration causing hemolysis of 5% of human red blood cells) [12]: 4 g/L
MBEC against Staphylococcus aureus biofilm [13]: 64 to 256 mg/L

MIC, range over the tested strains [5]: 4 to 8 µg/mL
Structure (SMILES): CCCCCCCCCCCCCC(=O)N[C@@H](CCCCN)C(=O)N[C@@H](CCCNC(=N)N)C(=O)N[C@H](C(=O)N[C@H](C(=O)N[C@@H](CCC(N)=O)C(=O)N[C@@H](CCCNC(=N)N)C(=O)N[C@H](C(=O)N[C@@H](CCCCN)C(=O)N[C@@H](CC(=O)O)C(=O)N[C@@H](Cc1ccccc1)C(=O)N[C@@H](CC(C)C)C(=O)N[C@@H](CCCNC(=N)N)C(N)=O)[C@@H](C)CC)C(C)C)[C@@H](C)CC [VII, C14-KR12-NH2] (Myristoyl-KRIVQRIKDFLR-NH2)
MBEC 24 h [3, 14]: 256 mg/L
MBEC 48 h [3, 15]: 256 mg/L
MBEC 72 h [3, 16]: 512 mg/L
MHC5% (minimum hemolytic concentration causing hemolysis of 5% of human red blood cells) [12]: 4 g/L
MBEC against Staphylococcus aureus biofilm [13]: 64 to 256 mg/L

MIC, range over the tested strains [5]: 4 to 16 µg/mL
Structure (SMILES): CCCCCCC(CCCC)C(=O)N[C@@H](CCCCN)C(=O)N[C@@H](CCCNC(=N)N)C(=O)N[C@H](C(=O)N[C@H](C(=O)N[C@@H](CCC(N)=O)C(=O)N[C@@H](CCCNC(=N)N)C(=O)N[C@H](C(=O)N[C@@H](CCCCN)C(=O)N[C@@H](CC(=O)O)C(=O)N[C@@H](Cc1ccccc1)C(=O)N[C@@H](CC(C)C)C(=O)N[C@@H](CCCNC(=N)N)C(N)=O)[C@@H](C)CC)C(C)C)[C@@H](C)CC (stereo partly drawn) [XIX, 2-Butyloctanoic acid-KR12-NH2] (X1-KRIVQRIKDFLR-NH2)
MBEC 24 h [3, 14]: >512 * mg/L
MBEC 48 h [3, 15]: >512 * mg/L
MBEC 72 h [3, 16]: >512 * mg/L
Antibiofilm activity against any type of biofilm [6]: did not exhibit antibiofilm activity
MHC5% (minimum hemolytic concentration causing hemolysis of 5% of human red blood cells) [12]: 16 g/L
